Where “and” joins values, the source holds several entries; their conditions need not be identical. Identical values can stand only once.
Test: Solution stability test (HPLC) of UDCA, branched chained amino acids and maltodextrin solution, Example IV
Format: physicochemical
Experimental: The stability tests were conducted on three different aqueous solution systems: […]. A bile acid and a high molecular weight aqueous soluble starch conversion product were combined in aqueous solution according to Example I, with results as shown in Tables 1A and 1B. • 2. Mixed bile acids and high molecular weight aqueous soluble starch conversion products were combined in aqueous solution according to Example II, with results as shown in Table 2. • 3. Bile acids, high molecular weight aqueous soluble starch conversion products and branched chained amino acids (e.g. leucine, isoleucine, valine, or other amino acid with a branched side chain) were combined in aqueous solution according to Example IV, with results as shown in Tables 3A through 3F. The stability tests were performed with HPLC and microscope light at various pH conditions under the normal and accelerated conditions. Accelerated conditions for testing pharmaceutical compositions have been described (Remington, The Science and Practice of Pharmacy, 19th ed., p. 640). […] Thus, the formulations of the examples are suitable for preparing a commercial liquid dosage form. […] Some formulations remain stable for over 2 years. Moreover, the solution stability tests were conducted on the aqueous solution dosage forms comprising the mixture of aqueous soluble UDCA, branched chained amino acid (leucine, isoleucine, valine) and maltodextrin according to example IV as a typical example of the solution dosage forms in which bile acid as a therapeutically active agent, as an adjuvant or carrier, pharmaceutically active agent, or enhancer of solubility, and high molecular weight aqueous soluble starch conversion products or soluble non-starch polysaccharides are dissolved. According to the test results, there is no discoloration, no clarity changes, and no precipitation. […] In the tables, the concentration of the indicated bile acid salt for each of the three numbered trials and the average thereof is reported on each line. The percentage indicates the relative concentration of the bile acid salt after incubation for a certain amount of time in comparison with the initial concentration. 85 mL of the aqueous solution in which soluble UDCA is dissolved was prepared, and then maltodextrin was added into the clear solution. Into the resulting clear solution, branched amino acids were added with adjusting the pH (4–7) with agitation and then sweetener, preservatives, and flavoring agent were added. Purified water was added to adjust the total volume to be 100 mL. Tables 3A to 3F show stability test results over time of formulation prepared with amino acids according to Example IV. All stability tests were conducted at 50° C. Stability test results at pH 1 (Table 3A), pH 3 (Table 3B), pH 5 (Table 3C), pH 7 (Table 3D), pH 9 (Table 3E), and pH 10 (Table 3F) are shown.

- Percentage of day 0 concentration (Table 3A: pH1, 50° C., day 0): 100.0%
- concentration by HPLC, Average (Table 3A: pH1, 50° C., day 0): 0.248
- concentration by HPLC, trials #1-#3 (Table 3A: pH1, 50° C., day 0): 0.261 and 0.236 and 0.249
- Percentage of day 0 concentration (Table 3A: pH1, 50° C., day 1): 105.0%
- concentration by HPLC, Average (Table 3A: pH1, 50° C., day 1): 0.261
- concentration by HPLC, trials #1-#3 (Table 3A: pH1, 50° C., day 1): 0.256 and 0.275 and 0.251
- Percentage of day 0 concentration (Table 3A: pH1, 50° C., day 2): 104.9%
- concentration by HPLC, Average (Table 3A: pH1, 50° C., day 2): 0.260
- concentration by HPLC, trials #1-#3 (Table 3A: pH1, 50° C., day 2): 0.268 and 0.263 and 0.251
- Percentage of day 0 concentration (Table 3A: pH1, 50° C., day 6): 114.6%
- concentration by HPLC, Average (Table 3A: pH1, 50° C., day 6): 0.285
- concentration by HPLC, trials #1-#3 (Table 3A: pH1, 50° C., day 6): 0.295 and 0.268 and 0.291
- Percentage of day 0 concentration (Table 3A: pH1, 50° C., day 7): 103.4%
- concentration by HPLC, Average (Table 3A: pH1, 50° C., day 7): 0.257
- concentration by HPLC, trials #1-#3 (Table 3A: pH1, 50° C., day 7): 0.249 and 0.254 and 0.267
- Percentage of day 0 concentration (Table 3A: pH1, 50° C., day 8): 98.8%
- concentration by HPLC, Average (Table 3A: pH1, 50° C., day 8): 0.245
- concentration by HPLC, trials #1-#3 (Table 3A: pH1, 50° C., day 8): 0.253 and 0.243 and 0.240
- Percentage of day 0 concentration (Table 3A: pH1, 50° C., day 9): 106.6%
- concentration by HPLC, Average (Table 3A: pH1, 50° C., day 9): 0.265
- concentration by HPLC, trials #1-#3 (Table 3A: pH1, 50° C., day 9): 0.263 and 0.268
- Percentage of day 0 concentration (Table 3B: pH 3, 50° C., day 0): 100.0%
- concentration by HPLC, Average (Table 3B: pH 3, 50° C., day 0): 0.256
- concentration by HPLC, trials #1-#3 (Table 3B: pH 3, 50° C., day 0): 0.261 and 0.254 and 0.253
- Percentage of day 0 concentration (Table 3B: pH 3, 50° C., day 1): 103.3%
- concentration by HPLC, Average (Table 3B: pH 3, 50° C., day 1): 0.265
- concentration by HPLC, trials #1-#3 (Table 3B: pH 3, 50° C., day 1): 0.266 and 0.268 and 0.261
- Percentage of day 0 concentration (Table 3B: pH 3, 50° C., day 2): 99.3%
- concentration by HPLC, Average (Table 3B: pH 3, 50° C., day 2): 0.254
- concentration by HPLC, trials #1-#3 (Table 3B: pH 3, 50° C., day 2): 0.273 and 0.243 and 0.247
- Percentage of day 0 concentration (Table 3B: pH 3, 50° C., day 6): 117.4%
- concentration by HPLC, Average (Table 3B: pH 3, 50° C., day 6): 0.301
- concentration by HPLC, trials #1-#3 (Table 3B: pH 3, 50° C., day 6): 0.296 and 0.306 and 0.300
- Percentage of day 0 concentration (Table 3B: pH 3, 50° C., day 7): 100.0%
- concentration by HPLC, Average (Table 3B: pH 3, 50° C., day 7): 0.256
- concentration by HPLC, trials #1-#3 (Table 3B: pH 3, 50° C., day 7): 0.247 and 0.265 and 0.257
- Percentage of day 0 concentration (Table 3B: pH 3, 50° C., day 8): 96.7%
- concentration by HPLC, Average (Table 3B: pH 3, 50° C., day 8): 0.248
- concentration by HPLC, trials #1-#3 (Table 3B: pH 3, 50° C., day 8): 0.250 and 0.247
- Percentage of day 0 concentration (Table 3B: pH 3, 50° C., day 13): 100.9%
- concentration by HPLC, Average (Table 3B: pH 3, 50° C., day 13): 0.258
- concentration by HPLC, trials #1-#3 (Table 3B: pH 3, 50° C., day 13): 0.285 and 0.240 and 0.250
- Percentage of day 0 concentration (Table 3C: pH 5, 50° C., day 0): 100.0%
- concentration by HPLC, Average (Table 3C: pH 5, 50° C., day 0): 0.279
- concentration by HPLC, trials #1-#3 (Table 3C: pH 5, 50° C., day 0): 0.285 and 0.258 and 0.295
- Percentage of day 0 concentration (Table 3C: pH 5, 50° C., day 3): 99.0%
- concentration by HPLC, Average (Table 3C: pH 5, 50° C., day 3): 0.277
- concentration by HPLC, trials #1-#3 (Table 3C: pH 5, 50° C., day 3): 0.280 and 0.275
- Percentage of day 0 concentration (Table 3C: pH 5, 50° C., day 6): 98.7%
- concentration by HPLC, Average (Table 3C: pH 5, 50° C., day 6): 0.276
- concentration by HPLC, trials #1-#3 (Table 3C: pH 5, 50° C., day 6): 0.285 and 0.273 and 0.270
- Percentage of day 0 concentration (Table 3C: pH 5, 50° C., day 10): 98.4%
- concentration by HPLC, Average (Table 3C: pH 5, 50° C., day 10): 0.275
- concentration by HPLC, trials #1-#3 (Table 3C: pH 5, 50° C., day 10): 0.274 and 0.276
- Percentage of day 0 concentration (Table 3C: pH 5, 50° C., day 13): 100.0%
- concentration by HPLC, Average (Table 3C: pH 5, 50° C., day 13): 0.279
- concentration by HPLC, trials #1-#3 (Table 3C: pH 5, 50° C., day 13): 0.273 and 0.287 and 0.278
- Percentage of day 0 concentration (Table 3C: pH 5, 50° C., day 17): 98.3%
- concentration by HPLC, Average (Table 3C: pH 5, 50° C., day 17): 0.275
- concentration by HPLC, trials #1-#3 (Table 3C: pH 5, 50° C., day 17): 0.278 and 0.276 and 0.270
- Percentage of day 0 concentration (Table 3C: pH 5, 50° C., day 20): 95.0%
- concentration by HPLC, Average (Table 3C: pH 5, 50° C., day 20): 0.266
- concentration by HPLC, trials #1-#3 (Table 3C: pH 5, 50° C., day 20): 0.261 and 0.275
- Percentage of day 0 concentration (Table 3C: pH 5, 50° C., day 24): 99.3%
- concentration by HPLC, Average (Table 3C: pH 5, 50° C., day 24): 0.277
- concentration by HPLC, trials #1-#3 (Table 3C: pH 5, 50° C., day 24): 0.267 and 0.274 and 0.292
- Percentage of day 0 concentration (Table 3D: pH 7, 50° C., day 0): 100.0%
- concentration by HPLC, Average (Table 3D: pH 7, 50° C., day 0): 0.289
- concentration by HPLC, trials #1-#3 (Table 3D: pH 7, 50° C., day 0): 0.296 and 0.289 and 0.281
- Percentage of day 0 concentration (Table 3D: pH 7, 50° C., day 5): 99.7%
- concentration by HPLC, Average (Table 3D: pH 7, 50° C., day 5): 0.288
- concentration by HPLC, trials #1-#3 (Table 3D: pH 7, 50° C., day 5): 0.300 and 0.282 and 0.281
- Percentage of day 0 concentration (Table 3D: pH 7, 50° C., day 8): 95.5%
- concentration by HPLC, Average (Table 3D: pH 7, 50° C., day 8): 0.276
- concentration by HPLC, trials #1-#3 (Table 3D: pH 7, 50° C., day 8): 0.277 and 0.282 and 0.268
- Percentage of day 0 concentration (Table 3D: pH 7, 50° C., day 12): 95.8%
- concentration by HPLC, Average (Table 3D: pH 7, 50° C., day 12): 0.277
- concentration by HPLC, trials #1-#3 (Table 3D: pH 7, 50° C., day 12): 0.273 and 0.278
- Percentage of day 0 concentration (Table 3D: pH 7, 50° C., day 15): 93.5%
- concentration by HPLC, Average (Table 3D: pH 7, 50° C., day 15): 0.270
- concentration by HPLC, trials #1-#3 (Table 3D: pH 7, 50° C., day 15): 0.271 and 0.273 and 0.266
- Percentage of day 0 concentration (Table 3D: pH 7, 50° C., day 19): 99.3%
- concentration by HPLC, Average (Table 3D: pH 7, 50° C., day 19): 0.287
- concentration by HPLC, trials #1-#3 (Table 3D: pH 7, 50° C., day 19): 0.294 and 0.285 and 0.281
- Percentage of day 0 concentration (Table 3E: pH 9, 50° C., day 0): 100.0%
- concentration by HPLC, Average (Table 3E: pH 9, 50° C., day 0): 0.286
- concentration by HPLC, trials #1-#3 (Table 3E: pH 9, 50° C., day 0): 0.291 and 0.286 and 0.282
- Percentage of day 0 concentration (Table 3E: pH 9, 50° C., day 3): 95.6%
- concentration by HPLC, Average (Table 3E: pH 9, 50° C., day 3): 0.273
- concentration by HPLC, trials #1-#3 (Table 3E: pH 9, 50° C., day 3): 0.266 and 0.273 and 0.282
- Percentage of day 0 concentration (Table 3E: pH 9, 50° C., day 6): 95.9%
- concentration by HPLC, Average (Table 3E: pH 9, 50° C., day 6): 0.274
- concentration by HPLC, trials #1-#3 (Table 3E: pH 9, 50° C., day 6): 0.277 and 0.274 and 0.272
- Percentage of day 0 concentration (Table 3E: pH 9, 50° C., day 10): 91.2%
- concentration by HPLC, Average (Table 3E: pH 9, 50° C., day 10): 0.261
- concentration by HPLC, trials #1-#3 (Table 3E: pH 9, 50° C., day 10): 0.243 and 0.245 and 0.295
- Percentage of day 0 concentration (Table 3E: pH 9, 50° C., day 13): 87.4%
- concentration by HPLC, Average (Table 3E: pH 9, 50° C., day 13): 0.250
- concentration by HPLC, trials #1-#3 (Table 3E: pH 9, 50° C., day 13): 0.246 and 0.269 and 0.236
- Percentage of day 0 concentration (Table 3E: pH 9, 50° C., day 17): 93.1%
- concentration by HPLC, Average (Table 3E: pH 9, 50° C., day 17): 0.267
- concentration by HPLC, trials #1-#3 (Table 3E: pH 9, 50° C., day 17): 0.275 and 0.280 and 0.245
- Percentage of day 0 concentration (Table 3F: pH 10, 50° C., day 0): 100.0%
- concentration by HPLC, Average (Table 3F: pH 10, 50° C., day 0): 0.287
- concentration by HPLC, trials #1-#3 (Table 3F: pH 10, 50° C., day 0): 0.292
- Percentage of day 0 concentration (Table 3F: pH 10, 50° C., day 2): 84.7%
- concentration by HPLC, Average (Table 3F: pH 10, 50° C., day 2): 0.243
- Percentage of day 0 concentration (Table 3F: pH 10, 50° C., day 5): 76.0%
- concentration by HPLC, Average (Table 3F: pH 10, 50° C., day 5): 0.218
- Percentage of day 0 concentration (Table 3F: pH 10, 50° C., day 7): 74.5%
- concentration by HPLC, Average (Table 3F: pH 10, 50° C., day 7): 0.214
- Percentage of day 0 concentration (Table 3F: pH 10, 50° C., day 9): 70.2%
- concentration by HPLC, Average (Table 3F: pH 10, 50° C., day 9): 0.202
- concentration by HPLC, trials #1-#3 (Table 3F: pH 10, 50° C., day 9): 0.206 and 0.192 and 0.207
Structure (SMILES): CC[C@H](C)[C@H](N)C(=O)O [Ile, isoleucine]
